Active and inactive are the calls of the source. The rule behind the calls is not given here.
System: CCRIS mutagenicity, Ames/micronucleus/aberration tests
Assay: CCRIS mutagenicity studies
[1] = Test System: AMES SALMONELLA TYPHIMURIUM, Strain/Indicator: TA98, Metabolic Activation: NONE, Method: PREINCUBATION
[2] = Test System: AMES SALMONELLA TYPHIMURIUM, Strain/Indicator: TA100, Metabolic Activation: NONE, Method: PREINCUBATION
[3] = Test System: AMES SALMONELLA TYPHIMURIUM, Strain/Indicator: TA1535, Metabolic Activation: NONE, Method: PREINCUBATION
[4] = Test System: AMES SALMONELLA TYPHIMURIUM, Strain/Indicator: TA1537, Metabolic Activation: NONE, Method: PREINCUBATION
[5] = Test System: AMES SALMONELLA TYPHIMURIUM, Strain/Indicator: TA100, Metabolic Activation: RAT, LIVER, S-9, AROCLOR 1254, Method: STANDARD PLATE

Structure (SMILES): Nc1ccc(C=O)cc1
- mutagenic call [1]: inactive; negative
- mutagenic call (Test System: AMES SALMONELLA TYPHIMURIUM, Strain/Indicator: TA98, Metabolic Activation: RAT LIVER S-9, PHENOBARBITAL AND BETA-NAPHTHOFLAVONE (30%), Method: PREINCUBATION): inactive; negative
- mutagenic call (Test System: AMES SALMONELLA TYPHIMURIUM, Strain/Indicator: TA98, Metabolic Activation: RAT LIVER S-9, PHENOBARBITAL AND BETA-NAPHTHOFLAVONE, Method: PREINCUBATION): inactive; negative
- mutagenic call [2]: inactive; negative
- mutagenic call (Test System: AMES SALMONELLA TYPHIMURIUM, Strain/Indicator: TA100, Metabolic Activation: RAT LIVER S-9, PHENOBARBITAL AND BETA-NAPHTHOFLAVONE (30%), Method: PREINCUBATION): inactive; negative
- mutagenic call (Test System: AMES SALMONELLA TYPHIMURIUM, Strain/Indicator: TA100, Metabolic Activation: RAT LIVER S-9, PHENOBARBITAL AND BETA-NAPHTHOFLAVONE, Method: PREINCUBATION): inactive; negative
- mutagenic call [3]: inactive; negative
- mutagenic call (Test System: AMES SALMONELLA TYPHIMURIUM, Strain/Indicator: TA1535, Metabolic Activation: RAT LIVER S-9, PHENOBARBITAL AND BETA-NAPHTHOFLAVONE (30%), Method: PREINCUBATION): inactive; negative
- mutagenic call (Test System: AMES SALMONELLA TYPHIMURIUM, Strain/Indicator: TA1535, Metabolic Activation: RAT LIVER S-9, PHENOBARBITAL AND BETA-NAPHTHOFLAVONE, Method: PREINCUBATION): inactive; negative
- mutagenic call [4]: inactive; negative
- mutagenic call (Test System: AMES SALMONELLA TYPHIMURIUM, Strain/Indicator: TA1537, Metabolic Activation: RAT LIVER S-9, PHENOBARBITAL AND BETA-NAPHTHOFLAVONE (30%), Method: PREINCUBATION): inactive; negative
- mutagenic call (Test System: AMES SALMONELLA TYPHIMURIUM, Strain/Indicator: TA1537, Metabolic Activation: RAT LIVER S-9, PHENOBARBITAL AND BETA-NAPHTHOFLAVONE, Method: PREINCUBATION): inactive; negative
- mutagenic call (Test System: E.COLI, Strain/Indicator: WP2UVRA, Metabolic Activation: NONE, Method: PREINCUBATION): inactive; negative
- mutagenic call (Test System: E.COLI, Strain/Indicator: WP2UVRA, Metabolic Activation: RAT LIVER S-9, PHENOBARBITAL AND BETA-NAPHTHOFLAVONE (30%), Method: PREINCUBATION): inactive; negative
- mutagenic call (Test System: E.COLI, Strain/Indicator: WP2UVRA, Metabolic Activation: RAT LIVER S-9, PHENOBARBITAL AND BETA-NAPHTHOFLAVONE, Method: PREINCUBATION): inactive; negative

Structure (SMILES): CC1=C(O)C(=O)CO1
- mutagenic call [2]: active; positive
- mutagenic call (Test System: AMES SALMONELLA TYPHIMURIUM, Strain/Indicator: TA100, Metabolic Activation: RAT, LIVER, S-9, PHENOBARBITAL AND 5,6-BENZOFLAVONE, Method: PREINCUBATION): active; positive

Structure (SMILES): COc1cc2c(c3ccc4ccccc4c13)CCC2=O
- mutagenic call [5]: active; positive

Structure (SMILES): COC(=O)CCl
- mutagenic call (Test System: AMES SALMONELLA TYPHIMURIUM, Strain/Indicator: TA102, Metabolic Activation: NONE, Method: STANDARD PLATE): inactive; negative
- mutagenic call (Test System: AMES SALMONELLA TYPHIMURIUM, Strain/Indicator: TA2638, Metabolic Activation: NONE, Method: STANDARD PLATE): inactive; negative
- mutagenic call (Test System: E. COLI, Strain/Indicator: WP2 (PKM101), Metabolic Activation: NONE, Method: STANDARD PLATE): inactive; negative
- mutagenic call (Test System: E. COLI, Strain/Indicator: WP2 UVRA (PKM101), Metabolic Activation: NONE, Method: STANDARD PLATE): inactive; negative

Structure (SMILES): CCCCCC(=O)CC
- mutagenic call (Test System: CHINESE HAMSTER V-79, Strain/Indicator: V-79 (HPRT)/6-THIOGUANINE, Metabolic Activation: NONE, Method: STANDARD PLATE): inactive; negative
- mutagenic call (Test System: CHINESE HAMSTER V-79, Strain/Indicator: V-79 (HPRT)/6-THIOGUANINE, Metabolic Activation: RAT LIVER S-9, Method: STANDARD PLATE): inactive; negative

Structure (SMILES): Cc1ccc([N+](=O)[O-])cc1NO
- mutagenic call (Test System: AMES SALMONELLA TYPHIMURIUM, Strain/Indicator: TA98, Metabolic Activation: NONE, Method: SUSPENSION/PLATE): inactive; negative
- mutagenic call (Test System: AMES SALMONELLA TYPHIMURIUM, Strain/Indicator: TA98, Metabolic Activation: RAT, LIVER, S-9, PHENOBARBITAL AND 5,6-BENZOFLAVONE, Method: SUSPENSION/PLATE): inactive; negative
- mutagenic call (Test System: AMES SALMONELLA TYPHIMURIUM, Strain/Indicator: TA100, Metabolic Activation: NONE, Method: SUSPENSION/PLATE): inactive; negative
- mutagenic call (Test System: AMES SALMONELLA TYPHIMURIUM, Strain/Indicator: TA100, Metabolic Activation: RAT, LIVER, S-9, PHENOBARBITAL AND 5,6-BENZOFLAVONE, Method: SUSPENSION/PLATE): inactive; negative

Structure (SMILES): COc1cc(C[C@H]2COC(=O)[C@@H]2Cc2ccc(O)c(OC)c2)ccc1O
- mutagenic call (Test System: CHINESE HAMSTER V79 CELLS, Strain/Indicator: V79 CELLS (HPRT)/6-THIOGUANINE, Metabolic Activation: NONE, Method: SUSPENSION/PLATE): inactive; negative
- mutagenic call (Test System: CHINESE HAMSTER V-79, Strain/Indicator: V-79(HPRT)/THIOGUANINE, Metabolic Activation: NONE): inactive; negative

Structure (SMILES): [O-][N+](=Nc1ccc(Cl)c(Cl)c1)c1ccc(Cl)c(Cl)c1
- mutagenic call (Test System: AMES SALMONELLA TYPHIMURIUM, Strain/Indicator: TA97, Metabolic Activation: NONE, Method: STANDARD PLATE): inactive; negative
- mutagenic call (Test System: AMES SALMONELLA TYPHIMURIUM, Strain/Indicator: TA97, Metabolic Activation: RAT, LIVER, S-9, AROCLOR 1254, Method: STANDARD PLATE): inactive; negative
- mutagenic call (Test System: AMES SALMONELLA TYPHIMURIUM, Strain/Indicator: TA98, Metabolic Activation: NONE, Method: STANDARD PLATE): inactive; negative
- mutagenic call (Test System: AMES SALMONELLA TYPHIMURIUM, Strain/Indicator: TA98, Metabolic Activation: RAT, LIVER, S-9, AROCLOR 1254, Method: STANDARD PLATE): inactive; negative
- mutagenic call (Test System: AMES SALMONELLA TYPHIMURIUM, Strain/Indicator: TA100, Metabolic Activation: NONE, Method: STANDARD PLATE): inactive; negative
- mutagenic call [5]: inactive; negative
- mutagenic call (Test System: AMES SALMONELLA TYPHIMURIUM, Strain/Indicator: TA104, Metabolic Activation: NONE, Method: STANDARD PLATE): inactive; negative
- mutagenic call (Test System: AMES SALMONELLA TYPHIMURIUM, Strain/Indicator: TA104, Metabolic Activation: RAT, LIVER, S-9, AROCLOR 1254, Method: STANDARD PLATE): inactive; negative
- mutagenic call (Test System: CHINESE HAMSTER OVARY, Strain/Indicator: CHO-K1-BH4 (HGPRT), Metabolic Activation: NONE): inactive; negative
- mutagenic call (Test System: CHINESE HAMSTER OVARY, Strain/Indicator: CHO-K1-BH4 (HGPRT), Metabolic Activation: RAT, LIVER, S-9, AROCLOR 1254): inactive; negative

Structure (SMILES): O=S(=O)(O)Oc1cccc2c1cc1ccc3cccc4ccc2c1c34
- mutagenic call [1]: inactive; negative
- mutagenic call (Test System: AMES SALMONELLA TYPHIMURIUM, Strain/Indicator: TA98, Metabolic Activation: RAT, LUNG, S-9, Method: PREINCUBATION): inactive; negative

Structure (SMILES): CC/C(=C(/c1ccc(OCCN(C)C)cc1)c1ccc(OP(=O)(O)O)cc1)c1ccc(C(C)C)cc1
- mutagenic call [1]: inactive; negative
- mutagenic call (Test System: AMES SALMONELLA TYPHIMURIUM, Strain/Indicator: TA98, Metabolic Activation: RAT, LIVER, S-9, Method: PREINCUBATION): inactive; negative
- mutagenic call [2]: inactive; negative
- mutagenic call (Test System: AMES SALMONELLA TYPHIMURIUM, Strain/Indicator: TA100, Metabolic Activation: RAT, LIVER, S-9, Method: PREINCUBATION): inactive; negative
- mutagenic call [3]: inactive; negative
- mutagenic call (Test System: AMES SALMONELLA TYPHIMURIUM, Strain/Indicator: TA1535, Metabolic Activation: RAT, LIVER, S-9, Method: PREINCUBATION): inactive; negative
- mutagenic call [4]: inactive; negative
- mutagenic call (Test System: AMES SALMONELLA TYPHIMURIUM, Strain/Indicator: TA1537, Metabolic Activation: RAT, LIVER, S-9, Method: PREINCUBATION): inactive; negative
- mutagenic call (Test System: E. COLI, Strain/Indicator: WP2 UVRA, Metabolic Activation: NONE, Method: PREINCUBATION): inactive; negative
- mutagenic call (Test System: E. COLI, Strain/Indicator: WP2 UVRA, Metabolic Activation: RAT, LIVER, S-9, Method: PREINCUBATION): inactive; negative

Structure (SMILES): c1ccc2c(c1)cc1cccc3c4cccc5cccc(c54)c2c13
- mutagenic call (Test System: HUMAN H1A1V2 CELLS, Strain/Indicator: TK LOCUS, Metabolic Activation: NONE, Method: SUSPENSION/PLATE): active; positive

Structure (SMILES): CC(Br)(CBr)COP(=O)(OCC(C)(Br)CBr)OCC(C)(Br)CBr (stereo not given)
- mutagenic call (Test System: AMES SALMONELLA TYPHIMURIUM, Strain/Indicator: TA100, Metabolic Activation: RAT, LIVER, MICROSOMES, PHENOBARBITAL, Method: PREINCUBATION): inactive; negative
- mutagenic call (Test System: AMES SALMONELLA TYPHIMURIUM, Strain/Indicator: TA100, Metabolic Activation: RAT, LIVER, MICROSOMES, Method: PREINCUBATION): inactive; negative
